Assay results: US20260184707A1, “PHARMACEUTICAL COMPOUNDS FOR THE TREATMENT OF COMPLEMENT MEDIATED DISORDERS” (ALEXION PHARMACEUTICALS, INC., priority 2022, published 2026)

target: T1, Human complement C1s enzyme (Homo sapiens, UniProt P09871); assay: Human C1s enzyme assay; format: biochemical; conditions: human complement C1s enzyme 1.16 nM, substrate Z-L-Lys-SBzl, A405; read-out: IC50 (Stars)
T1 construct: purified from human serum, Complement Technology, Inc; purchased Complement Technology, Inc; host or cells: human serum (plasma-derived native protein)
T1 sequence (P09871 438-688 limits assumed): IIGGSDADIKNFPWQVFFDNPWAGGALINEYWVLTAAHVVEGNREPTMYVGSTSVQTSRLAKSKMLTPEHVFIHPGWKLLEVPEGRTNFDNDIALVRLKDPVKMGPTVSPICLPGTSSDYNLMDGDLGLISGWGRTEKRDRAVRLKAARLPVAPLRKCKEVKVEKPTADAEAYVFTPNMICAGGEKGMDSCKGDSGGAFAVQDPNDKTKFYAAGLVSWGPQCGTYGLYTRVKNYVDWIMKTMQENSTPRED
T1 sequence (P09871 16-437 partner limits assumed): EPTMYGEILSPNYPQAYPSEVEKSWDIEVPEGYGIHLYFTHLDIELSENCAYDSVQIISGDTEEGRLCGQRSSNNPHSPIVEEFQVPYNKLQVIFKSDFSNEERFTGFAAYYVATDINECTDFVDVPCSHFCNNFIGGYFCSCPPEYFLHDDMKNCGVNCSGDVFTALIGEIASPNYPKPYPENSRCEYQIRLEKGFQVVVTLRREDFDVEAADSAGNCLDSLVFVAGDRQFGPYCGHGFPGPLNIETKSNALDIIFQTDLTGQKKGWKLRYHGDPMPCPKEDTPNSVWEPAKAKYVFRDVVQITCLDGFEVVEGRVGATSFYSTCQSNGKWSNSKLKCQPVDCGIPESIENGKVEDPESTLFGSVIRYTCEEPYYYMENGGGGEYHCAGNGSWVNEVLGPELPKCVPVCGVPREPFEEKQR
Method: The […] values of the compounds of Table 1 were determined with the human C1s enzyme assay described below. Other standard complement assays are also available.
Human complement C1s enzyme (purified from human serum, Complement Technology, Inc.) at 1.16 nM final concentration was incubated with test compound at various concentrations for 5 min at room temperature in 50 mM Tris, 1 M NaCl, pH 7.5. A synthetic substrate Z-L-Lys-SBzl and DTNB (Ellman's reagent) were added to final concentrations of 100 μM each. Absorbance at 405 nm (A405) was recorded at 30 second intervals for […] using a microplate spectrophotometer. IC values were calculated by nonlinear regression of complement C1s reaction rates as a function of test compound concentration.
[…]; ND indicates a compound for which the IC50 value is not determined.

IC50 [nM]	Structure (SMILES)
< 100	O=C(Cn1c(-c2ccccc2)ncc(NC(=O)c2ccc(Oc3ccccc3)o2)c1=O)NCc1cc2cnccc2[nH]1 [Compound 57, N-(1-(2-(((1H-pyrrolo[3,2-c]pyridin-2-yl)methyl)amino)-2-oxoethyl)-6-oxo-2-phenyl-1,6-dihydropyrimidin-5-yl)-5-phen-oxyfuran-2-carboxamide]
100 to 1000	C[C@@H](Nc1cnc(C2CCCC2)n(CC(=O)NCc2cc3cnccc3[nH]2)c1=O)c1ccc2oc3ccccc3c2c1 [Compound 324, (R)-N-((1H-pyrrolo[3,2-c]pyr-idin-2-yl)methyl)-2-(2-cyclo-pentyl-5-((1-(dibenzo[b,d]furan-2-yl)ethyl)amino)-6-oxo-pyrimidin-1(6H)-yl)acetamide]
< 100	C[C@@H](Nc1cnc(N2CCCC(F)(F)C2)n(CC(=O)NCc2cc3cnccc3[nH]2)c1=O)c1ccc2oc3ccccc3c2c1 [Compound 399, (R)-N-((1H-pyrrolo[3,2-c]pyridin-2-yl)methyl)-2-(5-((1-(dibenzo[b,d]furan-2-yl)ethyl)-amino)-2-(3,3-difluoropiperi-din-1-yl)-6-oxopyrimidin-1(6H)-yl)acetamide]
< 100	O=C(Cn1c(-c2cn[nH]c2)ncc(NCc2ccc3oc4ccccc4c3c2)c1=O)NCc1cc2cnccc2[nH]1 [Compound 312, N-((1H-pyrrolo[3,2-c]pyridine-2-yl)methyl)-2-(5-((dibenzo[b,d]furan-2-ylmethyl)amino)-6-oxo-2-(1H-pyrazol-4-yl)pyrimidin-1(6H)-yl)acetamide]
< 100	O=C(Cn1c(-c2ccccc2)ncc(NC(=O)c2csc(-c3cccs3)n2)c1=O)NCc1cc2cnccc2[nH]1 [Compound 227, N-(1-(2-(((1H-pyrrolo[3,2-c]pyridin-2-yl)methyl)amino)-2-oxoethyl)-6-oxo-2-phenyl-1,6-dihydropyrimidin-5-yl)-2-(thiophen-2-yl)thiazole-4-carboxamide]
< 100	O=C(Cn1c(-c2ccccc2)ncc(NCCCc2ccc(OC3COC3)cc2)c1=O)NCc1cc2cnccc2[nH]1 [Compound 103, N-((1H-pyrrolo[3,2-c]pyridine-2-yl)methyl)-2-(5-((3-(4-(oxetan-3-yl-oxy)phenyl)propyl)amino)-6-oxo-2-phenylpyrimidin-1(6H)-yl)acetamide]
< 100	COc1ccccc1-c1ccc(C(=O)Nc2cnc(-c3ccccc3)n(CC(=O)NCc3cc4cnccc4[nH]3)c2=O)cc1 [Compound 213, N-(1-(2-(((1H-pyrrolo[3,2-c]pyridin-2-yl)methyl)amino)-2-oxoethyl)-6-oxo-2-phenyl-1,6-dihydropyrimidin-5-yl)-2′-methoxy-[1,1′-biphenyl]-4-carboxamide]
< 100	O=C(Cn1c(-c2ccccc2)ncc(NC(=O)c2coc(-c3ccccc3)n2)c1=O)NCc1cc2cnccc2[nH]1 [Compound 111, N-(1-(2-(((1H-pyrrolo[3,2-c]pyridin-2-yl)methyl)amino)-2-oxoethyl)-6-oxo-2-phenyl-1,6-dihydropyrimidin-5-yl)-2-phenyloxazole-4-carboxamide]
100 to 1000	C[C@@H](Nc1cnc(-c2ccccc2)n(CC(=O)N[C@H](C)c2cc3cnccc3[nH]2)c1=O)c1ccc2oc3ccccc3c2c1 [Compound 294, N-((R)-1-(1H-pyrrolo[3,2-c]pyridin-2-yl)ethyl)-2-(5-(((R)-1-(dibenzo[b,d]furan-2-l)ethyl)-amino)-6-oxo-2-phenylpyrimi-din-1(6H)-yl)acetamide]
< 100	O=C(Cn1c(-c2ccccc2)ncc(NCCCCOc2ccccc2)c1=O)NCc1cc2cnccc2[nH]1 [Compound 11, N-((1H-pyrrolo[3,2-c]pyridin-2-yl)methyl)-2-(6-oxo-5-((4-phenoxybutyl)amino)-2-phenylpyrimidin-1(6H)-yl)acetamide]
< 100	O=C(Cn1c(-c2ccccc2)ncc(NC(=O)c2ccc3oc4ccccc4c3c2)c1=O)NCc1cc2cnccc2[nH]1 [Compound 97, N-(1-(2-(((1H-pyrrolo[3,2-c]pyridin-2-yl)methyl)amino)-2-oxoethyl)-6-oxo-2-phenyl-1,6-dihydropyrimidin-5-yl)dibenzo [b,d]furan-2-carboxamide]
100 to 1000	C[C@@H](Nc1nccn(CC(=O)NCc2cc3cnccc3[nH]2)c1=O)c1ccc2oc3ccccc3c2c1 [Compound 329, (R)-N-((1H-pyrrolo[3,2-c]pyridin-2-yl)methyl)-2-(3-((1-(dibenzo[b,d]furan-2-yl)ethyl)-amino)-2-oxopyrazin-1(2H)-yl)acetamide]
< 100	O=C(Cn1c(-c2ccccc2)ncc(NCc2ccc3oc4ccccc4c3c2)c1=O)NCc1cc2cnccc2[nH]1 [Compound 32, N-((1H-pyrrolo[3,2-c]pyridin-2-yl)methyl)-2-(5-((dibenzo [b,d]furan-2-ylmethyl)amino)-6-oxo-2-phenylpyrimidin-1(6H)-yl)acetamide]
< 100	C[C@@H](Nc1ncc(C2CCOCC2)n(CC(=O)NCc2cc3cnccc3[nH]2)c1=O)c1ccc2oc3ccccc3c2c1 [Compound 471, (R)—N-((1H-Pyrrolo[3,2-c]pyridine-2-yl)methyl)-2-(3-((1-(dibenzo[b,d]furan-2-yl)ethyl)amino)-2-oxo-6-(tetrahydro-2H-pyran-4-yl)pyrazin-1(2H)-yl)acetamide]
< 100	O=C(Cn1c(-c2ccccc2)ncc(NC(=O)c2cnc(-c3ccccc3)o2)c1=O)NCc1cc2cnccc2[nH]1 [Compound 107, N-(1-(2-(((1H-pyrrolo[3,2-c]pyridin-2-yl)methyl)amino)-2-oxoethyl)-6-oxo-2-phenyl-1,6-dihydropyrimidin-5-yl)-2-phenyloxazole-5-carboxamide]
< 100	C[C@@H](Nc1cnc(-c2ccccc2F)n(CC(=O)NCc2cc3cnccc3[nH]2)c1=O)c1ccc2oc3c(F)cccc3c2c1 [Compound 318, (R)—N-((1H-Pyrrolo[3,2-c]pyridine-2-yl)methyl)-2-(5-((1-(6-fluorodibenzo[b,d]furan-2-yl)ethyl)amino)-2-(2-fluorophenyl)-6-oxopyrimidin-1(6H)-yl)acetamide]
< 100	C[C@@H](Nc1ncc(-c2ccccc2)n(CC(=O)NCc2cc3cnccc3[nH]2)c1=O)c1ccc2oc3ccccc3c2c1 [Compound 348, (R)-N-((1H-pyrrolo[3,2-c]pyridin-2-yl)methyl)-2-(3-((1-(dibenzo[b,d]furan-2-yl)ethyl)-amino)-2-oxo-6-phenylpyr-azin-1(2H)-yl)acetamide]
< 100	O=C(Cn1c(-c2ccccc2)ncc(Nc2ccc(F)cc2)c1=O)NCc1cc2cnccc2[nH]1 [Compound 212, N-((1H-pyrrolo[3,2-c]pyridin-2-yl)methyl)-2-(5-((4-fluoro-phenyl)amino)-6-oxo-2-phen-ylpyrimidin-1(6H)-yl)acet-amide]
< 100	O=C(Cn1c(-c2ccccc2)ncc(NC(=O)CCCOc2ccccc2)c1=O)NCc1cc2cnccc2[nH]1 [Compound 4, N-(1-(2-(((1H-pyrrolo[3,2-c]pyridin-2-yl)methyl)amino)-2-oxoethyl)-6-oxo-2-phenyl-1,6-dihydropyrimidin-5-yl)-4-phen-oxybutanamide]
< 100	COc1cccc(-c2ccc(C(=O)Nc3cnc(-c4ccccc4)n(CC(=O)NCc4cc5cnccc5[nH]4)c3=O)cc2F)c1 [Compound 217, N-(1-(2-(((1H-pyrrolo[3,2-c]pyridine-2-yl)methyl)amino)-2-oxoethyl)-6-oxo-2-phenyl-1,6-dihydropyrimidin-5-yl)-2-fluoro-3′-methoxy-[1,1′-biphenyl]-4-carboxamide]
< 100	CP(=O)(O)c1ccc(-c2ncc(NCCCc3ccccc3)c(=O)n2CC(=O)NCc2cc3cnccc3[nH]2)cc1 [Compound 68, (4-(1-(2-(((1H-pyrrolo[3,2-c]pyridine-2-yl)methyl)amino)-2-oxoethyl)-6-oxo-5-((3-phenylpropyl)amino)-1,6-dihydropyrimidin-2-yl)phenyl)(methyl)phosphinic acid]
< 100	O=C(Cn1c(N2CC(F)(F)C2)ncc(NCc2ccc3oc4ccccc4c3c2)c1=O)NCc1cc2cnccc2[nH]1 [Compound 281, N-((1H-pyrrolo[3,2-c]pyridin-2-yl)methyl)-2-(5-((dibenzo [b,d]furan-2-ylmethyl)amino)-2-(3,3-difluoroazetidin-1-yl)-6-oxopyrimidin-1(6H)-yl)acet-amide]

Structure (SMILES)	IC50 [nM]
C[C@@H](Nc1cnc(N2C3CCC2COC3)n(CC(=O)NCc2cc3cnccc3[nH]2)c1=O)c1ccc2oc3ccccc3c2c1 [Compound 306, N-((1H-pyrrolo[3,2-c]pyridin-2-yl)methyl)-2-(2-(3-oxa-8-azabicyclo[3.2.1]octan-8-yl)-5-(((R)-1-(dibenzo[b,d]furan-2-yl)ethyl)amino)-6-oxopyrimi-din-1(6H)-yl)acetamide]	100 to 1000
